Test results: publication PMC3486926 (Journal of the American Chemical Society, 2012)

Target: LmbR (C-His6-LmbR) (Streptomyces lincolnensis, UniProt Q54372)
Assay: HPLC with charged aerosol detection, ESI-MS of product
Type: biochemical
Settings: C5 acceptor, 10 mM; co-substrate F6P 10 mM

O=P(O)(O)OC[C@H]1OC(O)[C@H](O)[C@@H]1O (stereo partly drawn) [8a, D-ribose 5-phosphate]
HPLC with charged aerosol detection, ESI-MS of product: LmbR can accept both R5P (8a) and X5P (8b) as the C5 substrate

O=P(O)(O)OC[C@H]1OC(O)[C@H](O)[C@H]1O (stereo partly drawn) [8b, D-xylose 5-phosphate]
HPLC with charged aerosol detection, ESI-MS of product: LmbR can accept both R5P (8a) and X5P (8b) as the C5 substrate
